Test results reported in patent US20220204497A1, “NOVEL COMPOUND HAVING ANTICANCER ACTIVITY, AND METHOD FOR PRODUCING SAME” (MEDICINAL BIOCONVERGENCE RESEARCH CENTER, priority 2019, published 2022).

Key:
[1] = test system: A549 cells; experiment: Cell viability by MTT method in A549 cells; format: cell-based; parameters: concentration or dose not given beside the values; conditions: 72 hours treatment
[2] = target: T1, AIMP2-DX2 (Homo sapiens, UniProt Q13155); experiment: DX2-nanoluciferase assay (DX2 expression change) in transfected A549 cells; conditions: for inhibition at 40 µM: A549, 4 h, read-out: DX-Nanoluciferase activity (40 μM), 40 μM, 4 hours treatment, A549 cells transfected with nanoluciferase-DX2, inhibitory effect on AIMP2-DX2 expression
T1 sequence (Q13155 1-251 isoform Q13155-2): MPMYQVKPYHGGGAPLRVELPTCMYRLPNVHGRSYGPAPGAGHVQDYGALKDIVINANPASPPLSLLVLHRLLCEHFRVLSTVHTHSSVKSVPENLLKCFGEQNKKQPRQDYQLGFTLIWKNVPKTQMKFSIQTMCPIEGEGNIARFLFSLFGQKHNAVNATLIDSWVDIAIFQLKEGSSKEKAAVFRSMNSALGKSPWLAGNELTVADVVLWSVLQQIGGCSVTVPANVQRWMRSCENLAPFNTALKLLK
Protocol: After cloning DX2 into a plasmid expressing nanoluciferase, the plasmid was transfected into A549 cells. Transfected cells were seeded 1×10^4 per well in a 96-well plate and stabilized for 12 hours. […] Cell viability was measured by the MTT method after 72 hours of treatment with each concentration of the compound in A549 cells.

Compound	Cell Viability (% inhibition) (A549) [1] [%]	inhibition at 40 µM [2] [%]	DX-Nanoluciferase activity (10 μM) ([2]; 10 μM, 4 hours treatment, A549 cells transfected with nanoluciferase-DX2)
Cc1ccc(S(=O)(=O)N[C@@H](CC(C)C)C(=O)Nc2nc(-c3ccc(O)cc3)cs2)cc1 [Compound 96, (S)—N-(4-(4-hydroxyphenyl)thiazol-2-yl)-4-methyl-2-(4-methylphenylsulfonamido)pentanamide]	93.07 ± 5.89	36.8 ± 9.16	
Cc1ccc(-c2csc(NC(=O)[C@H](CC(C)C)N(C)S(=O)(=O)c3ccccc3)n2)cc1 [Compound 97, (S)-4-Methyl-2-(methylphenylsulfonamido)-N-(4p-tolylthiazol-2-yl)pentanamide]	67.10 ± 7.93	15.1 ± 2.59	
Cc1ccc(S(=O)(=O)N[C@@H](Cc2ccc(OS(=O)(=O)c3ccc(C)cc3)cc2)C(=O)Nc2ccc(N3CCOCC3)cc2)cc1 [Compound 101, (S)-4-(2-(4-Methylphenylsulfonamido)-3-(4-morpholinophenylamino)-3-oxopropyl)phenyl 4-methylbenzenesulfonate]	35.10 ± 5.95	10.9 ± 4.88	
COc1ccc(-c2csc(NC(=O)[C@H](Cc3c[nH]cn3)NS(=O)(=O)c3ccc(Br)cc3)n2)cc1 [Compound 102, (S)-2-(4-Bromophenylsulfonamido)-3-(1H-Imidazol-4-yl)-N-(4-(4-methoxyphenyl)thiazol-2-yl)propanamide]	91.03 ± 6.44	27.2 ± 5.87	
CON(C)C(=O)[C@H](CC(C)C)NS(=O)(=O)c1ccc(C)cc1 [Compound 103, (S)—N-methoxy-N,4-dimethyl-2-(4-methylphenylsulfonamido)pentanamide]	−5.00 ± 6.69	63.7 ± 14.3	
CON(C)C(=O)[C@H](Cc1c[nH]c2ccccc12)NS(=O)(=O)c1ccc(C)cc1 [Compound 104, (S)-3-(1H-indol-3-yl)-N-methoxy-N-methyl-2-(4-methylphenylsulfonamido)propanamide]	6.26 ± 7.67	64.3 ± 5.96	
Cc1ccc(S(=O)(=O)N[C@@H](Cc2c[nH]c3ccccc23)C(=O)N2CCOCCOCCOCC2)cc1 [Compound 105, (S)—N-(3-(1H-indol-3-yl)-1-oxo-1-(1,4,7-trioxa-10-azacyclododecan-10-yl)propan-2-yl)-4-methylbenzenesulfonamide]	29.36 ± 7.43	57.1 ± 1.56	
CC(C)(C)c1ccc(S(=O)(=O)N[C@@H](Cc2c[nH]c3ccccc23)C(=O)Nc2ccc(N3CCOCC3)cc2)cc1 [Compound 106, (S)-2-(4-tert-Butylphenylsulfonamido)-3-(1H-indol-3-yl)-N-(4-morpholinophenyl)propan amide]	17.13 ± 5.35		68.14 ± 9.57 (10 μM)
O=C(Nc1nc(-c2ccccc2Cl)cs1)[C@H](Cc1c[nH]c2ccccc12)NS(=O)(=O)c1ccc(Br)cc1 [Compound 107, (S)-2-(4-Bromophenylsulfonamido)-N-(4-(2-chlorophenyl)thiazol-2-yl)-3-(1H-indol-3-yl)propanamide]	59.19 ± 2.09	37 ± 12.5	
O=C(Nc1nccs1)[C@H](Cc1c[nH]c2ccccc12)NS(=O)(=O)c1ccc(Br)cc1 [Compound 109, (S)-2-(4-Bromophenylsulfonamido)-3-(1H-indol-3-yl)-N-(thiazol-2-yl)propanamide]	4.14 ± 1.04	57.5 ± 9.11	
Cc1cnc(NC(=O)[C@H](Cc2c[nH]c3ccccc23)NS(=O)(=O)c2ccc(Br)cc2)s1 [Compound 110, (S)-2-(4-Bromophenylsulfonamido)-3-(1H-indol-3-yl)-N-(5-methylthiazol-2-yl)propanamide]	8.95 ± 3.66	46.7 ± 7.18	
